The experiment concerns ACC2 CT. In words: NADH reverse-coupled assay. Type of experiment: biochemical, human. As to conditions: reverse reaction.

Like-named read-outs stand apart in the source and are kept apart here.

Method: In the reverse reaction, ACC2 CT catalyzes the production of Acetyl CoA using malonyl CoA and biocytin as the substrates.
The activity of ACC2 CT in the reverse reaction is measured indirectly by coupling the reaction with two other enzymes, malate dehydrogenase and citrate synthase. Malate dehydrogenase converts NAD+ and malate to produce NADH and oxaloacetate. The acetyl CoA produced by the ACC2 CT reverse reaction and the oxaloacetate produced by the malate dehydrogenase reaction are consumed as the substrates for the citrate synthase reaction. The final products of the citrate synthase reaction are citric acid and CoA, but it is the production of NADH that acts as the readout for the activity of ACC2 CT. The conversion of NAD+ to NADH is detected by reading absorbance at 340 nm.
The final assay conditions are 50 nM ACC2 CT, 1 mM Malonyl CoA, 20 mM Biocytin, 8 mM Malic Acid, 3 mM NAD+, 100 units/mL Malate Dehydrogenase, 20 units/mL Citrate Synthase, 50 mM Hepes pH 7.0, 100 mM NaCl, 0.01% Tween 20, and compounds are used with a 200-fold dilution of 100% DMSO stock for a final concentration of 0.5% DMSO.
Absorbance data is collected at 340 nm and 37° C. for at least 30 minutes. Linear kinetic rates (mOD/min) are used to calculate % inhibition values of the compounds tested.

On to `CC(C)(COP(=O)(O)OP(=O)(O)OC[C@H]1O[C@@H](n2cnc3c(N)ncnc32)[C@H](O)[C@@H]1OP(=O)(O)O)[C@@H](O)C(=O)NCCC(=O)NCCSC(=O)CC(=O)O` [Malonyl CoA], for which the Km – broadly, the substrate concentration at which the rate is half of its maximum – came to 160 µM (against 50 nM ACC2/20 mM Biocytin, 37° C., absorbance 340 nm, read-out: kM of Malonyl CoA) and 130 µM (against ACC2/No Biocytin, 37° C., absorbance 340 nm, read-out: kM of Malonyl CoA). Consider `N[C@@H](CCCCNC(=O)CCCC[C@@H]1SC[C@@H]2NC(=O)N[C@@H]21)C(=O)O` [Biocytin], for which, under “could not be precisely determined, estimated, read-out: kM of Biocytin”, the Km was approximately 20000 µM.

The values are drawn from patent US20090155815A1, “CRYSTAL STRUCTURE OF THE CARBOXYL TRANSFERASE DOMAIN OF HUMAN ACETYL-COA CARBOXYLASE 2 PROTEIN (ACC2 CT) AND USES THEREOF” (priority 2007, published 2009).
